The supplement of paper PMC5908809

Experiments:
[1] = system: normal NK cells expanded with K562-aAPC; test: drug sensitivity score (DSS) (DSS units); higher = more sensitive; extreme values may be limits of the assay; details: 72 h; IL-2 2.5 ng/mL
Description: (§1)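 Drug sensitivity and resistance testing on K562-aAPC-expanded normal NK cells: 5 concentrations (10-fold steps over a 10,000-fold range), 72 h at 37 °C, viability by CellTiter-Glo normalised to DMSO and benzethonium chloride controls; DSS from the fitted curve.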

KHYG-1 (IL-2 2.5 ng/mL) [2] = test: as above; details: 72 h
NKL (IL-2 2.5 ng/mL) [3] = test: as above; details: 72 h
KAI3 (IL-2 2.5 ng/mL) [4] = test: as above; details: 72 h
[5] = system: normal primary NK cells, pool 1 (3 donors) (IL-2 2.5 ng/mL); test: as above; details: 72 h
NK-YS (IL-2 2.5 ng/mL) [6] = test: as above; details: 72 h
DERL-7 (IL-2 2.5 ng/mL) [7] = test: as above; details: 72 h
[8] = system: normal primary NK cells, pool 2 (3 donors) (IL-2 2.5 ng/mL); test: as above; details: 72 h
[9] = system: normal primary NK cells, pool 1 (3 donors), resting (IL-2 0 ng/mL); test: as above; details: 72 h
YT (IL-2 2.5 ng/mL) [10] = test: as above; details: 72 h
IMC-1 (IL-2 20 ng/mL) [11] = test: as above; details: 72 h
NK-92 (IL-2 2.5 ng/mL) [12] = test: as above; details: 72 h
SNK-6 (IL-2 2.5 ng/mL) [13] = test: as above; details: 72 h
[14] = system: normal primary NK cells, pool 3 (3 donors) (IL-2 2.5 ng/mL); test: as above; details: 72 h
KHYG-1 (IL-2 2.5 ng/mL) [15] = test: percent inhibition of viability; higher = more inhibition; details: 72 h
NKL (IL-2 2.5 ng/mL) [16] = test: as above; details: 72 h
KAI3 (IL-2 2.5 ng/mL) [17] = test: as above; details: 72 h
[18] = system: normal primary NK cells, pool 1 (3 donors) (IL-2 2.5 ng/mL); test: as above; details: 72 h
NK-YS (IL-2 2.5 ng/mL) [19] = test: as above; details: 72 h
DERL-7 (IL-2 2.5 ng/mL) [20] = test: as above; details: 72 h
[21] = system: normal primary NK cells, pool 2 (3 donors) (IL-2 2.5 ng/mL); test: as above; details: 72 h
[22] = system: normal primary NK cells, pool 1 (3 donors), resting (IL-2 0 ng/mL); test: as above; details: 72 h
YT (IL-2 2.5 ng/mL) [23] = test: as above; details: 72 h
IMC-1 (IL-2 20 ng/mL) [24] = test: as above; details: 72 h
NK-92 (IL-2 2.5 ng/mL) [25] = test: as above; details: 72 h
SNK-6 (IL-2 2.5 ng/mL) [26] = test: as above; details: 72 h
[27] = system: normal primary NK cells, pool 3 (3 donors) (IL-2 2.5 ng/mL); test: as above; details: 72 h
[28] = system: normal NK cells expanded with K562-aAPC; test: as above; details: 72 h, IL-2 2.5 ng/mL
Description: as §1

CNNCc1ccc(C(=O)NC(C)C)cc1 [Procarbazine] (max concentration tested 10000 nM)
Details	drug sensitivity score
DERL-7 (IL-2 2.5 ng/mL) [7]	0
IMC-1 (IL-2 20 ng/mL) [11]	0
KAI3 (IL-2 2.5 ng/mL) [4]	0
KHYG-1 (IL-2 2.5 ng/mL) [2]	0
NK-92 (IL-2 2.5 ng/mL) [12]	0
NK-YS (IL-2 2.5 ng/mL) [6]	0
NKL (IL-2 2.5 ng/mL) [3]	0
SNK-6 (IL-2 2.5 ng/mL) [13]	0
YT (IL-2 2.5 ng/mL) [10]	0
[1]	0
[5]	0
[8]	0
[9]	0
[14]	0

percent inhibition of viability [%]
Details	1 nM	10 nM	100 nM	1000 nM	10000 nM
DERL-7 (IL-2 2.5 ng/mL) [20]	-5.96	-2.97	-1.35	-4.02	-1.33
IMC-1 (IL-2 20 ng/mL) [24]	-5.39	-4.18	-3.85	-5.41	-5.74
KAI3 (IL-2 2.5 ng/mL) [17]	-11.1	-15.3	-9.69	-2.54	-7.53
KHYG-1 (IL-2 2.5 ng/mL) [15]	-6.92	-2.1	-5.13	-6.74	-9.22
NK-92 (IL-2 2.5 ng/mL) [25]	-19	-5.13	-2.68	-0.23	-12.9
NK-YS (IL-2 2.5 ng/mL) [19]	-8.8	-5.02	-3.78	-7.11	-5.77
NKL (IL-2 2.5 ng/mL) [16]	-15.8	-21.9	-20.6	-22.9	-16.7
SNK-6 (IL-2 2.5 ng/mL) [26]	-3.98	12.4	2.31	3.29	-21.5
YT (IL-2 2.5 ng/mL) [23]	-8.77	-3.75	-6.96	-5.83	-8.88
[18]	-3.19	-6.37	-6.53	-1.7	-5.09
[21]	-13.7	-3.7	-4.8	-10	-2.4
[22]	-10.9	-14.4	-17.2	1.81	-7.55
[27]	-11.8	-5.14	-5.98	-4.43	-4
[28]	-2.09	-5.44	-0.68	-4.82	-4.8

Cn1cc(CNCC2CCN(c3ncc(C(=O)NO)cn3)CC2)c2ccccc21 [Quisinostat] (max concentration tested 1000 nM)
Details	drug sensitivity score
DERL-7 (IL-2 2.5 ng/mL) [7]	23.7
IMC-1 (IL-2 20 ng/mL) [11]	17.2
KAI3 (IL-2 2.5 ng/mL) [4]	20.6
KHYG-1 (IL-2 2.5 ng/mL) [2]	19.9
NK-92 (IL-2 2.5 ng/mL) [12]	15.1
NK-YS (IL-2 2.5 ng/mL) [6]	19.7
NKL (IL-2 2.5 ng/mL) [3]	23.6
SNK-6 (IL-2 2.5 ng/mL) [13]	12.2
YT (IL-2 2.5 ng/mL) [10]	14.3
[1]	21.9
[5]	24.6
[8]	25.2
[9]	28.6
[14]	22.2

percent inhibition of viability [%]
Details	0.1 nM	1 nM	10 nM	100 nM	1000 nM
DERL-7 (IL-2 2.5 ng/mL) [20]	4.2	1.75	46.9	99.6	99.1
IMC-1 (IL-2 20 ng/mL) [24]	-4.98	-0.52	-8.31	99.6	99.7
KAI3 (IL-2 2.5 ng/mL) [17]	-2.72	8.43	36.8	88.8	97.3
KHYG-1 (IL-2 2.5 ng/mL) [15]	-1.89	-1.8	12.5	99.3	97.8
NK-92 (IL-2 2.5 ng/mL) [25]	-10.6	-6.5	15.2	70.9	93.4
NK-YS (IL-2 2.5 ng/mL) [19]	-1.23	0.57	20.6	92.9	97.7
NKL (IL-2 2.5 ng/mL) [16]	-9.03	-1.25	43.9	99.4	96.7
SNK-6 (IL-2 2.5 ng/mL) [26]	1.8	20.8	-18.7	56.4	99.2
YT (IL-2 2.5 ng/mL) [23]	0.16	-4.15	0.59	77.7	97.8
[18]	-12.9	4.2	58.6	97.3	96.1
[21]	-0.78	3.43	67.6	93.8	93.9
[22]	-8.56	21.3	79	90.3	90
[27]	-2.24	-1.5	32.9	96.6	97.4
[28]	-4.41	2.67	27.3	98.9	99.5
